From ChEMBL document CHEMBL1201862, “PubChem BioAssay data set” (2004)
The source made the active and inactive calls.

Experiments:
[1] = biological target: T1, Corticotropin-releasing factor receptor 2/Corticotropin-releasing factor-binding protein (Homo sapiens, UniProt P24387+Q13324); test: activators of CRF receptor 2 with binding protein – uHTS hits, confirmation (AID 602473); type: functional; conditions: read-out: EC50_Mean
T1 sequence (Q13324 whole entry): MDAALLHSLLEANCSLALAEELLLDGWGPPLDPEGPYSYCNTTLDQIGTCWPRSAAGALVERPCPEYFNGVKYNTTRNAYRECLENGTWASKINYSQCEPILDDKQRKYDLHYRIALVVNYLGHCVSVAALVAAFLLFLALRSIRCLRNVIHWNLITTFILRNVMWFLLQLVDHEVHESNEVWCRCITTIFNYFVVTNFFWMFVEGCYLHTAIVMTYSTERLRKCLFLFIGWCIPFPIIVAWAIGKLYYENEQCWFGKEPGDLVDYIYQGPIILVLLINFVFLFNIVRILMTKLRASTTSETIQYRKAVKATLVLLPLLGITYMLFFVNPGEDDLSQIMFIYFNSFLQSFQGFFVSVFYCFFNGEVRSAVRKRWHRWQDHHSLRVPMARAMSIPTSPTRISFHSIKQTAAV
T1 sequence (P24387 whole entry): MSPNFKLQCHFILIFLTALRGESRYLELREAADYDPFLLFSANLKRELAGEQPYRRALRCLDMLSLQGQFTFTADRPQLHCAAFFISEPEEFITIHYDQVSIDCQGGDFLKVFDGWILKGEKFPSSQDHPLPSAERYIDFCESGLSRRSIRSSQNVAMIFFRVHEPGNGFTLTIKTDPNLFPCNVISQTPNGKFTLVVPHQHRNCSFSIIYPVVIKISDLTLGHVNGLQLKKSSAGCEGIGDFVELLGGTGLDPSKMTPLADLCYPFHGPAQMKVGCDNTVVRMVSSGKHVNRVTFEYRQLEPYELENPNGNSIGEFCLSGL

[2] = blockers of CRF-binding protein–CRF-R2 complex – cell-based, uHTS hits, 384-well, dose response (AID 651639); type: functional, Homo sapiens; conditions: read-out: IC50_Mean
[3] = biological target: T2, Long-chain-fatty-acid--AMP ligase FadD28 (Mycobacterium tuberculosis, UniProt P9WQ59); test: Fluorescence polarization aasay to screen for inhibitors that compete for the binding of FadD28 to a bisubstrate Measured in Biochemical System Using Plate Reader - 2147-01_Inhibitor_Dose_CherryPick_Activity.; type: functional, Mycobacterium tuberculosis H37Rv
T2 sequence (P9WQ59 whole entry): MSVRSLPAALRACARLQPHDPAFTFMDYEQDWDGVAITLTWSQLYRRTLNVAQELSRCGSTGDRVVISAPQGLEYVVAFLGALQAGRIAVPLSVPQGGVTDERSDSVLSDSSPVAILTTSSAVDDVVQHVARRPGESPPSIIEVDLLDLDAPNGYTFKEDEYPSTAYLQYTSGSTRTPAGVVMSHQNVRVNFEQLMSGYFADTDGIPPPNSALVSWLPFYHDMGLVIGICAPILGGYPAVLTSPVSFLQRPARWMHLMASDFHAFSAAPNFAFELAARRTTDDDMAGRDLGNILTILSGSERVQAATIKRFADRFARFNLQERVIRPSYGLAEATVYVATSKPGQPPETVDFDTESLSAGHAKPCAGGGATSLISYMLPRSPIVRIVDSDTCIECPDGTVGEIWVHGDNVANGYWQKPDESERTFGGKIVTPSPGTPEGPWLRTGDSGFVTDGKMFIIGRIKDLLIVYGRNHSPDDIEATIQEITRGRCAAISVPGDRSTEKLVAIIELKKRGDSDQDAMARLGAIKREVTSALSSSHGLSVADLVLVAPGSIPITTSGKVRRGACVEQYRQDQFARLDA

[4] = biological target: T1, Corticotropin-releasing factor receptor 2/Corticotropin-releasing factor-binding protein; test: Dose Response confirmation of uHTS hits for small molecule antagonists of the CRF-binding protein and CRF-R2 receptor complex.; type: functional; conditions: read-out: IC50_Mean
[5] = biological target: T3, Fructose-bisphosphate aldolase (Mycobacterium tuberculosis, UniProt P9WQA3); test: Fluorescence-based biochemical high throughput dose response assay for inhibitors of the fructose-bisphosphate aldolase (FBA) of M. tuberculosis.; type: functional
T3 sequence (P9WQA3 whole entry): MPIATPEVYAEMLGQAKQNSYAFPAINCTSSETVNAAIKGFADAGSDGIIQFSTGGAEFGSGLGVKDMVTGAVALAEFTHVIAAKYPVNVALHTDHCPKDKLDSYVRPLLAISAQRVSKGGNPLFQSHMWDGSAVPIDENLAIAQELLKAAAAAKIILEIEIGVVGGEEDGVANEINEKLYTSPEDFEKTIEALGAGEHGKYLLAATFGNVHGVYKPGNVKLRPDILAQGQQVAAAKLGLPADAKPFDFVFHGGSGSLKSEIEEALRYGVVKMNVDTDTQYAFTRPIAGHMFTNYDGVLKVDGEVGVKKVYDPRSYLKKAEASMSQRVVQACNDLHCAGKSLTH

Cryptococcus neoformans = test: PubChem AID 686997; type: functional, organism-based; conditions: Cryptococcus neoformans
[6] = biological target: T4, Mannose-6-phosphate isomerase (Homo sapiens, UniProt P34949); test: MPI inhibition at elevated mannose 6-phosphate – biochemical, fluorescence intensity, high mannose 6-phosphate, primary screen (AID 1220)
T4 sequence (P34949 whole entry): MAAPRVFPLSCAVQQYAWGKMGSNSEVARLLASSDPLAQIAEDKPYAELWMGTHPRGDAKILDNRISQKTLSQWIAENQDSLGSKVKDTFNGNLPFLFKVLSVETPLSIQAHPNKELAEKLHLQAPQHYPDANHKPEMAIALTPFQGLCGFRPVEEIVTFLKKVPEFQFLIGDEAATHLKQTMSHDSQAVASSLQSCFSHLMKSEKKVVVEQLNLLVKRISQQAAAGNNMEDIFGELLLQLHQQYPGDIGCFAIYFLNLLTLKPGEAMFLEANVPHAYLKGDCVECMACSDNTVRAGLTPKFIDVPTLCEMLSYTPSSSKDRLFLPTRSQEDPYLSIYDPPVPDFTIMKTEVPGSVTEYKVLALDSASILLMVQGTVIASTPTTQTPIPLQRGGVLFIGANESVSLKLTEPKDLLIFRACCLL

Protein skinhead-1 = biological target: T5, Protein skinhead-1 (Caenorhabditis elegans, UniProt P34707); type: functional
T5 sequence (P34707 whole entry): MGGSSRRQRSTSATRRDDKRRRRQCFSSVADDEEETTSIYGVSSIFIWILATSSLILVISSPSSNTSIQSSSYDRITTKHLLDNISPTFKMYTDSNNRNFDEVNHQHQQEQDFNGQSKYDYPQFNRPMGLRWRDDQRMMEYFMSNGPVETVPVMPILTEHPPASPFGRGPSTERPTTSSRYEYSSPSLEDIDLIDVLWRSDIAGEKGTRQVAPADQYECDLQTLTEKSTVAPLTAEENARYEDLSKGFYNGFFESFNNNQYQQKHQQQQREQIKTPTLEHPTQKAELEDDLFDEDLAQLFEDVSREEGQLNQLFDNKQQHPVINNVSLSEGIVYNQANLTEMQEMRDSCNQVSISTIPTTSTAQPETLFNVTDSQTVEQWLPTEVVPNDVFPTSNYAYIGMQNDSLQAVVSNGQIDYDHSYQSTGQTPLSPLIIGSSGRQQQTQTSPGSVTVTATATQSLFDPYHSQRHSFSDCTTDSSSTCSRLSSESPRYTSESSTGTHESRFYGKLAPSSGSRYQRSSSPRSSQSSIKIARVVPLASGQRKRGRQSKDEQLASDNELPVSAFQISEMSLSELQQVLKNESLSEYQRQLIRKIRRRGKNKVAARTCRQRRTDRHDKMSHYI

CN(Cc1ccc([N+](=O)[O-])cc1)c1ccccc1
EC50 [1]: > 53 µM (inactive)
IC50 [2]: 7.06 µM (active)
AC50 [3]: > 100 µM (inactive)
IC50 [4]: 2.92 µM (active)

Nc1nnc(/C=C/c2ccccc2Cl)s1
IC50 [5]: 1.59 µM (active)

Cc1cc(C)c2nc(N3CCN(C(=O)c4cccs4)CC3)sc2c1
AC50 (Cryptococcus neoformans): > 70 µM (inactive)

Oc1ccccc1Oc1c(F)c(F)nc(N2CCCC2)c1F
AC50 [3]: 42.5 µM (active)
IC50 [6]: > 50 µM (not active)

CC(C)CC(C(=O)Oc1ccc2c3c(c(=O)oc2c1)CCC3)N1C(=O)c2ccccc2C1=O (stereo not given)
IC50 (Protein skinhead-1): > 100 µM (inactive)
IC50 [5]: 1.27 µM (active)
